Data: patent US20260234187A1, “ANTIMICROBIAL PEPTIDES” (MATERIAS S.R.L., priority 2020, published 2026)
pIC50: −log10 of the molar value. Where no end group is shown, it is not given here.

Columns and labels:
Format in all cases: cell-based
[1] = system: Candida albicans (ATCC 14053); test: activity against yeast, plate count, MFC; conditions: C. albicans; 25 μM, 6 h
Description: The inhibitory activity of the RiLK1 peptide was determined against the yeast Candida albicans. A stock culture was prepared in which 10^5 CFUs of C. albicans were inoculated in 10 ml of buffered peptone water. A reference strain (ATCC 14053) was used for this species. The culture was incubated for 6 h at 37° C. with the RiLK1 peptide at 25 μM concentrations. At the same time, control samples were incubated without adding the peptide. 100 μl of the samples thus prepared were seeded on DG18 plates (Dichloran 18% Glycerol Agar-ISO 21527-2) and incubated at 25° C. for 7 days. All experimental conditions investigated used the plate count method to estimate the antimycotic activity of the peptide. Specifically, the numbers of colonies grown on agar plates seeded with the cultures in the absence or presence of the individual peptide dilutions were counted and compared. The standard deviations of the triplicate incubations of each plate were determined using statistical software. The evaluation of the Minimum Fungicidal Concentration (MFC), i.e., the lowest concentration of antifungal agent capable of 99.9% inhibition of fungal growth on plates, was carried out as described in Bílikova et al, (2015, Peptides 68:190-196).

[2] = system: Listeria monocytogenes LM2; conditions: LM2, 6 h
Description: The bactericidal activity of the RiLK1 peptide was assessed against both Gram positive (Listeria monocytogenes LM2 and Staphilococcus aureus) and Gram negative (Salmonella typhimurium and Escherichia coli) pathogenic bacteria. The assessment of the concentration of the two peptides capable of inhibiting 50% of bacterial growth (IC50) was performed by the broth microdilution assay as described in Wang H X and Ng TB (2003, Peptides 24:969-972). The standard deviations and the IC50s for triplicate incubations of each plate were determined using GraphPad Prism version 6.00 (Graph-Pad Software, La Jolla California USA). All experimental conditions investigated used the plate count method to estimate the bactericidal activity of the peptides. Specifically, the numbers of colonies grown on agar plates seeded with the bacterial suspensions in the absence or presence of the individual peptide dilutions were counted and compared. The standard deviations of the triplicate incubations of each plate were determined using statistical software. A control stock suspension was prepared in which 10^3 CFUs of L. monocytogenes were inoculated in 10 ml of Half Fraser Broth and serial dilutions (100 to 0.01 μM) of the suspension were performed. […]

[3] = system: Aspergillus brasiliensis (ATCC 9341); test: antifungal activity, plate count, MFC; conditions: A. brasiliensis; 25 μM, 6 h
Description: The antifungal activity of the RiLK1 peptide was determined against Aspergillus brasiliensis. For this purpose, a stock culture was prepared in which 10^5 CFUs of A. brasiliensis were inoculated in 10 ml of buffered peptone water. A reference strain (ATCC 9341) was used for this fungal species. The culture was incubated for 6 h at 37° C. with the RiLK1 peptide at 25 μM concentrations. At the same time, control samples were incubated without adding the peptide. 100 μl of the samples thus prepared were seeded on DG18 plates (Dichloran 18% Glycerol Agar-ISO 21527-2) and incubated at 25° C. for 7 days. All experimental conditions investigated used the plate count method to estimate the fungicidal activity of the peptide. Specifically, the numbers of colonies grown on agar plates seeded with the fungal suspensions in the absence or presence of the individual peptide dilutions were counted and compared. The standard deviations of the triplicate incubations of each plate were determined using statistical software. The evaluation of the Minimum Fungicidal Concentration (MFC), i.e., the lowest concentration of antifungal agent capable of 99.9% inhibition of fungal growth on plates, was carried out as described in Bílikova et al, (2015, Peptides 68:190-196).

RLKWVRIWRR-NH2 [RiLK1, RLKWVRIWRR]
Drop Log CFU/ml [1]: 5 Log CFU/ml | post-treatment decrease in the fungal load [1]: 5 Log | pIC50 [2]: 6.34 | Drop Log CFU/ml [3]: 5 Log CFU/ml | post-treatment decrease in the fungal load [3]: 5 Log
